Paper PMC4220016, “The binding characteristics and orientation of a novel radioligand with distinct properties at 5-HT3A and 5-HT3AB receptors” (Neuropharmacology, 2014)
Read-outs that look alike come from different tables or passages of the source.

Legend:
5-HT3A receptor F226C = biological target: T1, 5-HT3A receptor F226C (Homo sapiens, UniProt P46098, F221C); experiment: Saturation binding of [^3H]VUF10166 at 5-HT3A receptor mutant; details: F226C Kd versus wild type
T1 construct: expressed in transfected cells; host or cells: HEK 293
Description: (§1) Mutagenesis was performed using the QuikChange method (Agilent Technologies Inc., California, USA) on human 5-HT3A cDNA (accession number: P46098) cloned into pcDNA3.1 (Invitrogen, Paisley, UK). Cysteine residues were substituted for amino acids throughout each of the binding loops A–E (Fig. 1). To facilitate comparisons with previous work, we use the numbering of the equivalent residues in the mouse 5-HT3A subunit; for human numbering 5 should be subtracted from each residue number.
(§2) All data were analysed using GraphPad Prism 4.03. […].

5-HT3A receptor L126C = biological target: T2, 5-HT3A receptor L126C (Homo sapiens, UniProt P46098, L121C); experiment: as above; details: L126C Kd versus wild type
T2 construct: expressed in transfected cells; host or cells: HEK 293
Description: as §1, §2

5-HT3A receptor Y153C = biological target: T3, 5-HT3A receptor Y153C (Homo sapiens, UniProt P46098, Y148C); experiment: as above; details: Y153C Kd versus wild type
T3 construct: expressed in transfected cells; host or cells: HEK 293
Description: as §1, §2

5-HT3A receptor H185C = biological target: T4, 5-HT3A receptor H185C (Homo sapiens, UniProt P46098, H180C); experiment: as above; details: H185C Kd versus wild type
T4 construct: expressed in transfected cells; host or cells: HEK 293
Description: as §1
(§3) All data were analysed using GraphPad Prism 4.03.

5-HT3A receptor I139C = biological target: T5, 5-HT3A receptor I139C (Homo sapiens, UniProt P46098, I134C); experiment: as above; details: I139C Kd versus wild type
T5 construct: expressed in transfected cells; host or cells: HEK 293
Description: as §1, §3

5-HT3A receptor I71C = biological target: T6, 5-HT3A receptor I71C (Homo sapiens, UniProt P46098, I66C); experiment: as above; details: I71C Kd versus wild type
T6 construct: expressed in transfected cells; host or cells: HEK 293
Description: as §1, §3

5-HT3A receptor K112C = biological target: T7, 5-HT3A receptor K112C (Homo sapiens, UniProt P46098, K107C); experiment: as above; details: K112C Kd versus wild type
T7 construct: expressed in transfected cells; host or cells: HEK 293
Description: as §1, §3

5-HT3A receptor N128C = biological target: T8, 5-HT3A receptor N128C (Homo sapiens, UniProt P46098, N123C); experiment: as above; details: N128C Kd versus wild type
T8 construct: expressed in transfected cells; host or cells: HEK 293
Description: as §1, §3

5-HT3A receptor N232C = biological target: T9, 5-HT3A receptor N232C (Homo sapiens, UniProt P46098, N227C); experiment: as above; details: N232C Kd versus wild type
T9 construct: expressed in transfected cells; host or cells: HEK 293
Description: as §1, §3

5-HT3A receptor Q151C = biological target: T10, 5-HT3A receptor Q151C (Homo sapiens, UniProt P46098, Q146C); experiment: as above; details: Q151C Kd versus wild type
T10 construct: expressed in transfected cells; host or cells: HEK 293
Description: as §1, §3

5-HT3A receptor R145C = biological target: T11, 5-HT3A receptor R145C (Homo sapiens, UniProt P46098, R140C); experiment: as above; details: R145C Kd versus wild type
T11 construct: expressed in transfected cells; host or cells: HEK 293
Description: as §1, §3

5-HT3A receptor R92C = biological target: T12, 5-HT3A receptor R92C (Homo sapiens, UniProt P46098, R87C); experiment: as above; details: R92C Kd versus wild type
T12 construct: expressed in transfected cells; host or cells: HEK 293
Description: as §1, §3

5-HT3A receptor S114C = biological target: T13, 5-HT3A receptor S114C (Homo sapiens, UniProt P46098, S109C); experiment: as above; details: S114C Kd versus wild type
T13 construct: expressed in transfected cells; host or cells: HEK 293
Description: as §1, §3

5-HT3A receptors [1] = biological target: T14, 5-HT3A receptors (Homo sapiens, UniProt P46098); experiment: Kinetic measurements (association, dissociation) at 5-HT3A receptors; format: binding; set-up: expressed in transfected cells; host or cells: HEK 293
T14 sequence (P46098 24-478): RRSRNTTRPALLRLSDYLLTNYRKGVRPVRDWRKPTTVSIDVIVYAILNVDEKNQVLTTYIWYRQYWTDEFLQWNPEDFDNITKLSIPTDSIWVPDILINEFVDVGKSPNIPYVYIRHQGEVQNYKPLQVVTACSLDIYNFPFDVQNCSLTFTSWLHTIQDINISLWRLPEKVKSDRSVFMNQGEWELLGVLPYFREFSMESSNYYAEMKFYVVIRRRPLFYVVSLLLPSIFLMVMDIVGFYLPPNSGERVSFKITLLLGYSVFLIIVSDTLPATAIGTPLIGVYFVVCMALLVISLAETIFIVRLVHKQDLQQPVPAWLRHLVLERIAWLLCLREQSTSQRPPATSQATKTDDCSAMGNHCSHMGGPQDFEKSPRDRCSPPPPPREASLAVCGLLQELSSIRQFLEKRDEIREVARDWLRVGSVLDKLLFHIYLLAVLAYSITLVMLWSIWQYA

5-HT3AB receptors [2] = biological target: T15, 5-HT3AB receptors (Homo sapiens, UniProt O95264+P46098); experiment: Kinetic measurements (association, dissociation) at 5-HT3AB receptors; format: binding; set-up: expressed in transfected cells; host or cells: HEK 293; details: for koff: from kobs plot
T15 sequence (P46098 24-478): T14 sequence (P46098 24-478)
T15 sequence (O95264 22-441): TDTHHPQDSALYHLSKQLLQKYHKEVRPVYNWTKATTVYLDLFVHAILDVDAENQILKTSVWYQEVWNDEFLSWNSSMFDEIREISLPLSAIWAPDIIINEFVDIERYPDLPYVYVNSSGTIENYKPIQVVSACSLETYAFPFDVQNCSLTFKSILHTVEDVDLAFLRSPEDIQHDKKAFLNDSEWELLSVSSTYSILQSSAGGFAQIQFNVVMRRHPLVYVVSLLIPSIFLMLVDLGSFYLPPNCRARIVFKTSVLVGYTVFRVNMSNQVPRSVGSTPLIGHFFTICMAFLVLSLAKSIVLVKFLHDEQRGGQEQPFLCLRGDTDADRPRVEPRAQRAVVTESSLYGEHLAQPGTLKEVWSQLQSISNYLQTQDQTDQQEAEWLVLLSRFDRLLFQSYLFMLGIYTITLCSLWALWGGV

5-HT3A receptors [3] = biological target: T14, 5-HT3A receptors; experiment: Competition binding with [^3H]VUF10166 at 5-HT3A receptors
5-HT3AB receptors [4] = biological target: T15, 5-HT3AB receptors; experiment: Competition binding with [^3H]VUF10166 at 5-HT3AB receptors
5-HT3A receptors [5] = biological target: T14, 5-HT3A receptors; experiment: biochemical
5-HT3AB receptors [6] = biological target: T15, 5-HT3AB receptors; experiment: biochemical
5-HT3A receptors [7] = test system: 5-HT3A receptors; set-up: method as in Nakamura et al., 2013; details: ref Nakamura et al., 2013; cited from earlier work
5-HT3AB receptors [8] = test system: 5-HT3AB receptors; set-up: method as in Nakamura et al., 2013; details: ref Nakamura et al., 2013; cited from earlier work

T7 sequence (P46098 24-478 K107C): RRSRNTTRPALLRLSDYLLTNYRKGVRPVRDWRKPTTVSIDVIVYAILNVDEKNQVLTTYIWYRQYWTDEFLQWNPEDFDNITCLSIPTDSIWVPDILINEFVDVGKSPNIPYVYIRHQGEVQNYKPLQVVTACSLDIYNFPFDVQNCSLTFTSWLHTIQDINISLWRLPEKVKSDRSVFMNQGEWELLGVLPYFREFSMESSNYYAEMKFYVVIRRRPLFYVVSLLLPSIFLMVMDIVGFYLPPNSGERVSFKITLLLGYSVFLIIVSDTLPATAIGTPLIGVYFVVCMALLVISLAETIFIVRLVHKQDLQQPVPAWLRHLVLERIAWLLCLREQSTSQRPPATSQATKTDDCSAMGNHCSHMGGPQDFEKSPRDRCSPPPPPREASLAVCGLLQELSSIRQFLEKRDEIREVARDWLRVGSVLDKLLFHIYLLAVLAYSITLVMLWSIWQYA
T10 sequence (P46098 24-478 Q146C): as the sequence (P46098 24-478 K107C) above, with C84K, Q123C counted along it
T9 sequence (P46098 24-478 N227C): as the sequence (P46098 24-478 K107C) above, with C84K, N204C counted along it
T12 sequence (P46098 24-478 R87C): as the sequence (P46098 24-478 K107C) above, with R64C, C84K counted along it
T4 sequence (P46098 24-478 H180C): as the sequence (P46098 24-478 K107C) above, with C84K, H157C counted along it
T8 sequence (P46098 24-478 N123C): as the sequence (P46098 24-478 K107C) above, with C84K, N100C counted along it
T6 sequence (P46098 24-478 I66C): as the sequence (P46098 24-478 K107C) above, with I43C, C84K counted along it
T2 sequence (P46098 24-478 L121C): as the sequence (P46098 24-478 K107C) above, with C84K, L98C counted along it
T3 sequence (P46098 24-478 Y148C): as the sequence (P46098 24-478 K107C) above, with C84K, Y125C counted along it
T11 sequence (P46098 24-478 R140C): as the sequence (P46098 24-478 K107C) above, with C84K, R117C counted along it
T13 sequence (P46098 24-478 S109C): as the sequence (P46098 24-478 K107C) above, with C84K, S86C counted along it
T5 sequence (P46098 24-478 I134C): as the sequence (P46098 24-478 K107C) above, with C84K, I111C counted along it
T1 sequence (P46098 24-478 F221C): as the sequence (P46098 24-478 K107C) above, with C84K, F198C counted along it

[3H]CN1CCN(c2nc3ccccc3nc2Cl)CC1 [[^3H]VUF10166] [2-chloro-3-(4-[^3H]methylpiperazin-1-yl)quinoxaline]
Fold change (5-HT3A receptor F226C): 7.6 | Fold change (5-HT3A receptor L126C): 4.2 | Fold change (5-HT3A receptor Y153C): 9.7 | Fold change (5-HT3A receptor H185C): 4.5 | Fold change (5-HT3A receptor I139C): 7.4 | Fold change (5-HT3A receptor I71C): 1.1 | Fold change (5-HT3A receptor K112C): 1.6 | Fold change (5-HT3A receptor N128C): 3.3 | Fold change (5-HT3A receptor N232C): 9.0 | Fold change (5-HT3A receptor Q151C): 8.7 | Fold change (5-HT3A receptor R145C): 4.6 | Fold change (5-HT3A receptor R92C): 4.2 | Fold change (5-HT3A receptor S114C): 1.0 | kon determined directly from kobs values using Equ (5) (5-HT3A receptors [1]): 8.24e+07 M/min | koff from dissociation, single exponential (5-HT3A receptors [1]; dissociation in 2 mM quipazine): 0.000183 ± 1.7e-05 s⁻¹ | koff (5-HT3A receptors [1]; intercept of plot of kobs versus radioligand concentration): 0.00017 s⁻¹ | kon (5-HT3A receptors [1]; slope of plot of kobs versus radioligand concentration): 1.04e+06 M⁻¹ s⁻¹ | average kon determined from kobs (Equ (5)) (5-HT3AB receptors [2]; below 3 nM [^3H]VUF10166): 8.77e+07 M/min | koff from dissociation, double exponential, fast component (5-HT3AB receptors [2]; dissociation in 2 mM quipazine): 0.00378 ± 0.000933 s⁻¹ | koff from dissociation, double exponential, slow component (5-HT3AB receptors [2]; dissociation in 2 mM quipazine): 0.000167 ± 5e-05 s⁻¹ | koff (5-HT3AB receptors [2]; first component, [^3H]VUF10166 < 3 nM): 0.0004 s⁻¹ | koff (5-HT3AB receptors [2]; second component, [^3H]VUF10166 > 3 nM): 0.0027 s⁻¹

CN1CCc2cc3c(cc2[C@H]1[C@@H]1OC(=O)c2c1ccc1c2OCO1)OCO3 [Bicuculline]
inhibition of specific [^3H]VUF10166 binding (in words) (5-HT3A receptors [3]): not | inhibition of specific [^3H]VUF10166 binding (in words) (5-HT3AB receptors [4]): not

CC1C(=O)O[C@H]2[C@H](O)[C@@]34[C@H]5C[C@@H](C(C)(C)C)[C@@]36C(O)C(=O)O[C@H]6O[C@@]4(C(=O)O5)[C@@]12O (stereo partly shown) [Ginkgolide]
inhibition of specific [^3H]VUF10166 binding (in words) (5-HT3A receptors [3]): not and unaffected | inhibition of specific [^3H]VUF10166 binding (in words) (5-HT3AB receptors [4]): not

NCC(=O)O [Glycine]
inhibition of specific [^3H]VUF10166 binding (in words) (5-HT3A receptors [3]; 5-HT3A): not | inhibition of specific [^3H]VUF10166 binding (in words) (5-HT3AB receptors [4]; 5-HT3AB): not

COc1cc2c3cc1Oc1cc(ccc1O)C[C@@H]1c4c(cc(OC)c(O)c4Oc4ccc(cc4)C[C@@H]3N(C)CC2)CC[N+]1(C)C [d-Tubocurarine]
IC50 (5-HT3A receptors [5]): 24.5 µM | IC50 (5-HT3AB receptors [6]): 51.3 µM | IC50 (5-HT3A receptors [3]): 3.89 µM | inhibition of specific [^3H]VUF10166 binding (in words) (5-HT3A receptors [3]): inhibited | IC50 (5-HT3AB receptors [4]): 3.63 µM | inhibition of specific [^3H]VUF10166 binding (in words) (5-HT3AB receptors [4]): inhibited

CC(=O)OCC[N+](C)(C)C [ACh]
inhibition of specific [^3H]VUF10166 binding (in words) (5-HT3A receptors [3]; 5-HT3A): not | inhibition of specific [^3H]VUF10166 binding (in words) (5-HT3AB receptors [4]; 5-HT3AB): not

CC[C@@]1(O)C(=O)OCc2c1cc1n(c2=O)Cc2cc3c(CN(C)C)c(O)ccc3nc2-1 [topotecan]
effect on 5-HT3A receptors (in words) (5-HT3A receptors [7]): inhibit | effect on 5-HT3AB receptors (in words) (5-HT3AB receptors [8]): potentiate

COc1ccc(-c2ccc(=N)n(CCCC(=O)O)n2)cc1 [Gabazine]
inhibition of specific [^3H]VUF10166 binding (in words) (5-HT3A receptors [3]; 5-HT3A): not | inhibition of specific [^3H]VUF10166 binding (in words) (5-HT3AB receptors [4]; 5-HT3AB): not
